Reference: patent US9527853B2, “Fused triazole derivatives as gamma secretase modulators” (Ares Trading S.A., priority 2012, dated 2016)
Blank lines part the entries; values can stand above or below the compound they belong to.

What was measured:
[1] = tested on: Aβ42; experiment: Amyloidβ peptide release (Aβ42) assay, AlphaLisa on supernatant of APPswe-HEK cells; format: cell-based; conditions: Homo sapiens, 24 hours incubation with compound, read-out: Ab42 IC50 Ranges
Method: (§1) Amyloidβ Peptide Release (Aβ42 & AβTotal) Assay to Determine IC50 Values.
(§2) Amyloidβ peptide release (Aβ42 & AβTotal) assay are performed in 384 well microtiter plates (Perkin Elmer AlphaPlate #6008350) in a final volume of 20 μl, using supernatant coming from APPswe-HEK cells exposed to test compounds. Compounds are dissolved in and diluted in 100% DMSO and incubated with APPswe-HEK cells for 24 hours a 37° C. in 5% CO2. The supernatant from APPswe-HEK cells are mixed with antibodies: for Aβ42 detection: AlphaLisa Amyloid β 1-42 Kit (Perkin Elmer AL203L) Anti-Amyloid β1-42-specific antibody acceptor beads, biotinylated anti-Amyloid “β1-42” antibody and streptavidin (SA) donor beads diluted in AlphaLisa buffer (to the instructions of the supplier). For Aβ total detection: Custom Anti-Amyloid βtotal acceptor beads (6E10 acceptor beads), biotinylated anti-Amyloid “β1-42” antibody (Perkin Elmer AL203L) and streptavidin (SA) donor beads diluted in AlphaLisa buffer (to the instructions of the supplier). After addition of supernatant to the antibody mix, the assay is incubated 4 h and 30 minutes. AmyloidP peptide release (Aβ42 & AβTotal) is measured with a Pherastar FS (BMG) multimode reader using the alphascreen module.

[2] = tested on: AβTotal; experiment: Amyloidβ peptide release (AβTotal) assay, AlphaLisa on supernatant of APPswe-HEK cells; format: cell-based, human; conditions: 24 hours, ratio Abtot versus Ab42
Method: as §1, §2

SMILES: COc1cc(Nc2nnn3c2CCCC3c2cccc(C(F)(F)F)c2)ccc1-n1cnc(C)c1 (stereo not shown) [Example 6, N-(3-methoxy-4-(4-methyl-1H-imidazol-1-yl)phenyl)-7-(3-(trifluoromethyl)phenyl)-4,5,6,7-tetrahydro-[1,2,3]triazolo[1,5-a]pyridin-3-amine]
IC50 [1]: 150 to 500 nM | Abtot/Ab42 selectivity ranges [2]: b (b: 100 fold > selectivity ≧ 50 fold)

SMILES: COc1cc(Nc2nnn3c2CCCC3c2ccc(F)cc2)ccc1-n1cnc(C)c1 (stereo not shown) [Example 7, 7-(4-fluorophenyl)-N-(3-methoxy-4-(4-methyl-1H-imidazol-1-yl)phenyl)-4,5,6,7-tetrahydro-[1,2,3]triazolo[1,5-a]pyridin-3-amine]
IC50 [1]: 150 to 500 nM | Abtot/Ab42 selectivity ranges [2]: b (b: 100 fold > selectivity ≧ 50 fold)

SMILES: COc1cc(Nc2nnn3c2CCC3c2ccc(Cl)cc2)ccc1-n1cnc(C)c1 (stereo not shown) [Example 8, 6-(4-chlorophenyl)-N-(3-methoxy-4-(4-methyl-1H-imidazol-1-yl)phenyl)-5,6-dihydro-4H-pyrrolo[1,2-c][1,2,3]triazol-3-amine]
IC50 [1]: 150 to 500 nM | Abtot/Ab42 selectivity ranges [2]: a (a: selectivity ≧ 100 fold)

SMILES: Cc1cc(-c2ccc(Nc3nnn4c3CCC4c3ccc(Cl)cc3)cc2)ccn1 (stereo not shown) [Example 9]
IC50 [1]: 150 to 500 nM | Abtot/Ab42 selectivity ranges [2]: a (a: selectivity ≧ 100 fold)

SMILES: COc1cc(Nc2nnn3c2CCC3c2ccc(F)cc2)ccc1-n1cnc(C)c1 (stereo not shown) [Example 10, 6-(4-fluorophenyl)-N-(3-methoxy-4-(4-methyl-1H-imidazol-1-yl)phenyl)-5,6-dihydro-4H-pyrrolo[1,2-c][1,2,3]triazol-3-amine]
IC50 [1]: 150 to 500 nM | Abtot/Ab42 selectivity ranges [2]: a (a: selectivity ≧ 100 fold)

SMILES: COc1cc(Nc2nnn3c2CCC3c2ccccc2Cl)ccc1-n1cnc(C)c1 (stereo not shown) [Example 11, 6-(2-chlorophenyl)-N-(3-methoxy-4-(4-methyl-1H-imidazol-1-yl)phenyl)-5,6-dihydro-4H-pyrrolo[1,2-c][1,2,3]triazol-3-amine]
IC50 [1]: 150 to 500 nM | Abtot/Ab42 selectivity ranges [2]: b (b: 100 fold > selectivity ≧ 50 fold)

SMILES: Cc1cn(-c2ccc(NC(=O)c3nnn4c3CCCC4c3ccc(Cl)cc3)cc2C#N)cn1 (stereo not shown) [Example 13, 7-(4-chlorophenyl)-N-(3-cyano-4-(4-methyl-1H-imidazol-1-yl)phenyl)-4,5,6,7-tetrahydro-[1,2,3]triazolo[1,5-a]pyridine-3-carboxamide]
IC50 [1]: 150 to 500 nM | Abtot/Ab42 selectivity ranges [2]: c (c: 50 fold > selectivity ≧ 10 fold)

SMILES: Cc1cn(-c2ccc(NC(=O)c3nnn4c3CCCC4c3ccc(Cl)cc3)cc2F)cn1 (stereo not shown) [Example 14, 7-(4-chlorophenyl)-N-(3-fluoro-4-(4-methyl-1H-imidazol-1-yl)phenyl)-4,5,6,7-tetrahydro-[1,2,3]triazolo[1,5-a]pyridine-3-carboxamide]
IC50 [1]: 150 to 500 nM | Abtot/Ab42 selectivity ranges [2]: c (c: 50 fold > selectivity ≧ 10 fold)

SMILES: COc1nc(NC(=O)c2nnn3c2CCCC3c2ccc(Cl)cc2)ccc1-n1cnc(C)c1 (stereo not shown) [Example 15, 7-(4-chlorophenyl)-N-(6-methoxy-5-(4-methyl-1H-imidazol-1-yl)pyridin-2-yl)-4,5,6,7-tetrahydro-[1,2,3]triazolo[1,5-a]pyridine-3-carboxamide]
IC50 [1]: 500 to 1000 nM | Abtot/Ab42 selectivity ranges [2]: c (c: 50 fold > selectivity ≧ 10 fold)

SMILES: COc1cc(NC(=O)c2nnn3c2CCCC3c2ccc(Cl)cc2)ccc1-c1ccnc(C)c1 (stereo not shown) [Example 16, 7-(4-chlorophenyl)-N-(3-methoxy-4-(2-methylpyridin-4-yl)phenyl)-4,5,6,7-tetrahydro-[1,2,3]triazolo[1,5-a]pyridine-3-carboxamide]
IC50 [1]: 150 to 500 nM | Abtot/Ab42 selectivity ranges [2]: c (c: 50 fold > selectivity ≧ 10 fold)

SMILES: COc1cc(NC(=O)c2nnn3c2CCCC3c2ccc(F)cc2Cl)ccc1-n1cnc(C)c1 (stereo not shown) [Example 17, 7-(2-chloro-4-fluorophenyl)-N-(3-methoxy-4-(4-methyl-1H-imidazol-1-yl)phenyl)-4,5,6,7-tetrahydro-[1,2,3]triazolo[1,5-a]pyridine-3-carboxamide]
IC50 [1]: 150 to 500 nM | Abtot/Ab42 selectivity ranges [2]: c (c: 50 fold > selectivity ≧ 10 fold)

SMILES: COc1cc(NC(=O)c2nnn3c2CCCC3c2ccccc2C(F)(F)F)ccc1-n1cnc(C)c1 (stereo not shown) [Example 18, N-(3-methoxy-4-(4-methyl-1Himidazol-1-yl)phenyl)-7-(2-(trifluoromethyl)phenyl)-4,5,6,7-tetrahydro-[1,2,3]triazolo[1,5-a]pyridine-3-carboxamide]
IC50 [1]: 150 to 500 nM | Abtot/Ab42 selectivity ranges [2]: c (c: 50 fold > selectivity ≧ 10 fold)

SMILES: COc1cc(NC(=O)c2nnn3c2CCCC3c2ccc(F)cc2)ccc1-n1cnc(C)c1 (stereo not shown) [Example 20, 7-(4-fluorophenyl)-N-(3-methoxy-4-(4-methyl-1H-imidazol-1-yl)phenyl)-4,5,6,7-tetrahydro-[1,2,3]triazolo[1,5-a]pyridine-3-carboxamide]
IC50 [1]: 150 to 500 nM | Abtot/Ab42 selectivity ranges [2]: b (b: 100 fold > selectivity ≧ 50 fold)

The next lines start with results.

IC50 [1]: 150 to 500 nM
SMILES: COc1cc(Nc2nnn3c2CCCC3c2ccc(F)cc2Cl)ccc1-n1cnc(C)c1 (stereo not shown) [Example 1, 7-(2-chloro-4-fluorophenyl)-N-(3-methoxy-4-(4-methyl-1H-imidazol-1-yl)phenyl)-4,5,6,7-tetrahydro-[1,2,3]triazolo[1,5-a]pyridin-3-amine]
Abtot/Ab42 selectivity ranges [2]: b (b: 100 fold > selectivity ≧ 50 fold)

IC50 [1]: 150 to 500 nM
SMILES: COc1cc(Nc2nnn3c2CCCC3c2ccccc2C(F)(F)F)ccc1-n1cnc(C)c1 (stereo not shown) [Example 2]
Abtot/Ab42 selectivity ranges [2]: a (a: selectivity ≧ 100 fold)

IC50 [1]: 150 to 500 nM
SMILES: Cc1cn(-c2ccc(Nc3nnn4c3CCCC4c3ccc(F)cc3Cl)cc2F)cn1 (stereo not shown) [Example 3, 7-(2-chloro-4-fluorophenyl)-N-(3-fluoro-4-(4-methyl-1H-imidazol-1-yl)phenyl)-4,5,6,7-tetrahydro-[1,2,3]triazolo[1,5-a]pyridin-3-amine]
Abtot/Ab42 selectivity ranges [2]: b (b: 100 fold > selectivity ≧ 50 fold)

IC50 [1]: 150 to 500 nM
SMILES: COc1cc(Nc2nnn3c2CCCC3c2ccc(Cl)cc2)ccc1-n1cnc(C)c1 (stereo not shown) [Example 4, 7-(4-chlorophenyl)-N-(3-methoxy-4-(4-methyl-1H-imidazol-1-yl)phenyl)-4,5,6,7-tetrahydro-[1,2,3]triazolo[1,5-a]pyridin-3-amine]
Abtot/Ab42 selectivity ranges [2]: b (b: 100 fold > selectivity ≧ 50 fold)

IC50 [1]: 150 to 500 nM
SMILES: COc1cc(Nc2nnn3c2CCCC3c2ccc(Cl)c(Cl)c2)ccc1-n1cnc(C)c1 (stereo not shown) [Example 5, 7-(3,4-dichlorophenyl)-N-(3-methoxy-4-(4-methyl-1H-imidazol-1-yl)phenyl)-4,5,6,7-tetrahydro-[1,2,3]triazolo[1,5-a]pyridin-3-amine]
Abtot/Ab42 selectivity ranges [2]: b (b: 100 fold > selectivity ≧ 50 fold)

IC50 [1]: ≤ 150 nM
SMILES: COc1cc(NC(=O)c2nnn3c2CCCC3c2ccc(Cl)cc2)ccc1-n1cnc(C)c1 (stereo not shown) [Example 12, 7-(4-chlorophenyl)-N-(3-methoxy-4-(4-methyl-1H-imidazol-1-yl)phenyl)-4,5,6,7-tetrahydro-[1,2,3]triazolo[1,5-a]pyridine-3-carboxamide]
Abtot/Ab42 selectivity ranges [2]: b (b: 100 fold > selectivity ≧ 50 fold)

IC50 [1]: ≤ 150 nM
SMILES: COc1cc(NC(=O)c2nnn3c2CCCC3c2ccc(Cl)c(Cl)c2)ccc1-n1cnc(C)c1 (stereo not shown) [Example 19, 7-(3,4-dichlorophenyl)-N-(3-methoxy-4-(4-methyl-1H-imidazol-1-yl)phenyl)-4,5,6,7-tetrahydro-[1,2,3]triazolo[1,5-a]pyridine-3-carboxamide]
Abtot/Ab42 selectivity ranges [2]: b (b: 100 fold > selectivity ≧ 50 fold)
